In PubChem BioAssay (NCI) one finds TGI and GI50 data, which are given here for 18 compounds.

Some test systems named below: CCRF-CEM leukemia; ACHN renal; M14 melanoma; MOLT-4 leukemia; 786-0 renal; UACC-62 melanoma; HCT-15 colon; SW-620 colon; SNB-75 CNS; HOP-92 NSCLC.
Holding throughout (assay): growth of human tumour cells (NCI), 48 h

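Following 48 hours of exposure in 96-well plates, responses at five concentrations were used to interpolate endpoints linearly. At the GI50, growth is halved. TGI is the concentration that stops growth completely.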 Bounds are passed on as bounds.

For `Oc1cc(C2OCCCO2)cc(O)c1O`, the TGI in the assay with CCRF-CEM leukemia, in the assay on ACHN renal, in the assay with M14 melanoma, in the assay with MOLT-4 leukemia, with 786-0 renal and in the assay with UACC-62 melanoma was greater than 100 µM in each case. For the same compound, the TGI in the assay on HCT-15 colon, in the assay with SW-620 colon and in the assay on SNB-75 CNS was greater than 100 µM in each case.

With `CN(C)C(=S)/N=c1\ss/c(=N\C(=S)N(C)C)n1-c1ccc(Cl)c(Cl)c1`, the TGI with CCRF-CEM leukemia, in the assay with ACHN renal, with M14 melanoma, in the assay on MOLT-4 leukemia, with 786-0 renal and in the assay on UACC-62 melanoma was greater than 100 µM each time. The TGI with HCT-15 colon is greater than 100 µM; with SW-620 colon it was greater than 100 µM; with SNB-75 CNS, 61.2 µM.

Take `Cc1cc2c(cc1Cl)SC(=Nc1ccc(Cl)cc1)N(S(=O)(=O)c1ccccc1)S2(=O)=O`: the GI50 with CCRF-CEM leukemia was 4.92 µM; in the assay on ACHN renal it was 1.95 µM; in the assay on M14 melanoma it was 12.6 µM; in the assay with 786-0 renal, 4.54 µM; in the assay with UACC-62 melanoma, 11.6 µM; in the assay on HCT-15 colon it was 2.77 µM. For the same compound, the GI50 is 5.63 µM in the assay with SW-620 colon and 5.39 µM in the assay with HOP-92 NSCLC. The TGI is 27.4 µM with CCRF-CEM leukemia; 10.5 µM in the assay on ACHN renal; 27.6 µM in the assay on M14 melanoma; 18.1 µM in the assay on 786-0 renal; 23.8 µM with UACC-62 melanoma; 13 µM in the assay on HCT-15 colon. The TGI came to 17.4 µM with SW-620 colon and 26.1 µM with HOP-92 NSCLC.

As for `Cn1cc(C2=C(c3cn(CCCCCN)c4ccccc34)C(=O)NC2=O)c2ccccc21`, the GI50 was 5.58 µM in the assay on CCRF-CEM leukemia; 10.9 µM with ACHN renal; 12.4 µM in the assay with M14 melanoma; 8.09 µM in the assay on MOLT-4 leukemia; 9.83 µM with 786-0 renal; 10.3 µM with UACC-62 melanoma. Also, the GI50 in the assay on HCT-15 colon was 7.01 µM; in the assay on SW-620 colon it was 9.64 µM; with SNB-75 CNS, 1.08 µM. Further, the TGI in the assay with CCRF-CEM leukemia is greater than 20.6 µM; in the assay on ACHN renal, greater than 25 µM; with M14 melanoma, greater than 25 µM; in the assay on MOLT-4 leukemia, greater than 22.9 µM; in the assay with 786-0 renal it was greater than 25 µM; in the assay on UACC-62 melanoma, greater than 25 µM. The TGI with HCT-15 colon, in the assay on SW-620 colon and in the assay with SNB-75 CNS was greater than 25 µM each time.

For the compound `O=S1OC2(c3ccccc3-c3ccccc32)c2ccccc21` (stereo not drawn), the TGI in the assay on CCRF-CEM leukemia, with ACHN renal, with M14 melanoma, in the assay with MOLT-4 leukemia, in the assay with 786-0 renal and in the assay with UACC-62 melanoma was greater than 100 µM each time. In addition, the TGI with HCT-15 colon, in the assay on SW-620 colon and with SNB-75 CNS was greater than 100 µM in each case.

Regarding `CCc1ccccc1NC(=O)c1sc2nc3c(cc2c1N)C(=O)CCC3`, the GI50 in the assay with CCRF-CEM leukemia is 0.352 µM; in the assay on ACHN renal it was 1.17 µM; in the assay with M14 melanoma, 0.404 µM; with MOLT-4 leukemia, 5.29 µM; in the assay on 786-0 renal, 0.722 µM; in the assay with UACC-62 melanoma, 0.439 µM. Moreover, the GI50 with HCT-15 colon was 0.406 µM; in the assay with SW-620 colon, 0.329 µM; with SNB-75 CNS it was 0.346 µM. Besides, the TGI in the assay on CCRF-CEM leukemia was greater than 100 µM; in the assay on ACHN renal it was greater than 100 µM; in the assay with M14 melanoma, greater than 100 µM; in the assay with MOLT-4 leukemia, greater than 100 µM; with 786-0 renal, greater than 74.2 µM; with UACC-62 melanoma, greater than 100 µM. Further, the figures for the TGI with HCT-15 colon, in the assay on SW-620 colon and in the assay with SNB-75 CNS were greater than 100 µM, greater than 100 µM and 55.1 µM, respectively.

As to `CC(=O)c1sc(-c2nc(C)c(C(=O)/C=C\c3ccc(/C=C\C(=O)c4sc(-c5nc(C)c(C(C)=O)s5)nc4C)cc3)s2)nc1C`, the TGI with CCRF-CEM leukemia, in the assay on ACHN renal, in the assay with M14 melanoma, in the assay with MOLT-4 leukemia, in the assay on 786-0 renal and with UACC-62 melanoma was greater than 100 µM throughout. Moreover, the TGI with HCT-15 colon and in the assay with SW-620 colon was greater than 100 µM in each case.

As for `COc1ccc(-c2c[nH]c(=S)n2-c2ccc(OC)cc2)cc1`, the GI50 with ACHN renal, in the assay with MOLT-4 leukemia, in the assay on 786-0 renal, in the assay on UACC-62 melanoma, in the assay with HCT-15 colon and in the assay on SW-620 colon was greater than 50 µM in each case. Besides, in the assay with SNB-75 CNS, the GI50 was greater than 50 µM. Also, the TGI with ACHN renal, in the assay with MOLT-4 leukemia, in the assay on 786-0 renal, in the assay with UACC-62 melanoma, in the assay on HCT-15 colon and with SW-620 colon was greater than 50 µM each time. For the same compound, the TGI in the assay on SNB-75 CNS was greater than 50 µM.

Turning to `COC(=O)/C(C#N)=C1\CCC(O)N1` (stereo not drawn), the TGI with CCRF-CEM leukemia, in the assay with ACHN renal, with M14 melanoma, in the assay with MOLT-4 leukemia, in the assay with 786-0 renal and with UACC-62 melanoma was greater than 100 µM each time. Moreover, the TGI in the assay with SW-620 colon and in the assay on SNB-75 CNS was greater than 100 µM in each case.

With `Cc1cc[c-]cc1.Fc1c[c-]c(-c2ccccn2)c(F)c1.[Pt+2].c1ccc(P(C[PH+](c2ccccc2)c2ccccc2)c2ccccc2)cc1`, the GI50 with ACHN renal was 2.89 µM; with M14 melanoma, 2.91 µM; with MOLT-4 leukemia, 3.35 µM; with 786-0 renal, 2.92 µM; in the assay on UACC-62 melanoma, 2.04 µM; in the assay with HCT-15 colon, 3.21 µM. Moreover, the results for the GI50 in the assay on SW-620 colon and in the assay with HOP-92 NSCLC were 2.83 µM and 1.57 µM, respectively. Besides, the TGI with ACHN renal amounted to 9.84 µM; in the assay with M14 melanoma it was 13.7 µM; in the assay with MOLT-4 leukemia it was 12.2 µM; in the assay on 786-0 renal, 10.1 µM; with UACC-62 melanoma it was 9.31 µM; in the assay on HCT-15 colon it was 12.6 µM. In addition, the TGI is 12.4 µM with SW-620 colon and 4.97 µM with HOP-92 NSCLC.

Regarding `COc1ccc(-c2oc3cc(O)c(OC)c(O)c3c(=O)c2OC)cc1O`, the GI50 is 0.343 µM in the assay on CCRF-CEM leukemia; 1.52 µM in the assay on ACHN renal; 0.509 µM in the assay with MOLT-4 leukemia; 0.578 µM with 786-0 renal; 0.311 µM in the assay with UACC-62 melanoma; 0.0928 µM in the assay on HCT-15 colon. Moreover, the GI50 with SW-620 colon was 0.0485 µM; with HOP-92 NSCLC, 3.46 µM. In addition, the TGI in the assay on CCRF-CEM leukemia was greater than 100 µM; in the assay on ACHN renal, greater than 100 µM; in the assay with MOLT-4 leukemia it was greater than 100 µM; in the assay on 786-0 renal it was 7.42 µM; in the assay with UACC-62 melanoma, greater than 100 µM; in the assay with HCT-15 colon it was greater than 100 µM. The TGI in the assay on SW-620 colon and in the assay on HOP-92 NSCLC was greater than 100 µM each time.

Take `CCOC(=N)CC(=O)Nc1cccc(C)c1C`: the TGI in the assay with CCRF-CEM leukemia was greater than 100 µM; in the assay with ACHN renal, greater than 100 µM; in the assay with M14 melanoma it was greater than 100 µM; in the assay with MOLT-4 leukemia it was 7.46 µM; in the assay on 786-0 renal, greater than 100 µM; in the assay with UACC-62 melanoma it was greater than 100 µM. Besides, the TGI with SW-620 colon and in the assay on SNB-75 CNS was greater than 100 µM in each case.

Turning to `Nc1ccn(C2(CO)C=C(CO)C(O)C2O)c(=O)n1` (stereo not drawn), the TGI in the assay with ACHN renal, with M14 melanoma, in the assay with MOLT-4 leukemia, in the assay with 786-0 renal, with UACC-62 melanoma and in the assay on HCT-15 colon was greater than 25.8 µM in each case. The TGI with SW-620 colon and in the assay with SNB-75 CNS was greater than 25.8 µM throughout.

As for `Cc1cc(NS(=O)(=O)c2ccc(Nc3c4ccccc4nc4c(C(=O)NCCN(C)C)cccc34)cc2)no1`, the TGI in the assay with CCRF-CEM leukemia was 11.1 µM; in the assay on ACHN renal, 19 µM; with M14 melanoma, greater than 100 µM; with 786-0 renal, 19.7 µM; with UACC-62 melanoma, 14.4 µM; with HCT-15 colon, greater than 100 µM. Also, the TGI in the assay on SW-620 colon was greater than 100 µM; with SNB-75 CNS it was 21 µM.

On to `CC(=O)/C=C/c1ccc(C#Cc2ccccc2)s1`, for which the GI50 is 22.2 µM with CCRF-CEM leukemia; 16.3 µM in the assay on ACHN renal; 15.7 µM with M14 melanoma; 12.5 µM in the assay with 786-0 renal; 17.5 µM with UACC-62 melanoma; 15.6 µM in the assay with HCT-15 colon. Further, the GI50 in the assay with SW-620 colon is 19.4 µM. The TGI with CCRF-CEM leukemia stood at 47.6 µM; with ACHN renal, 29.8 µM; in the assay on M14 melanoma, 29.1 µM; with 786-0 renal, 25 µM; with UACC-62 melanoma, 31.5 µM; in the assay with HCT-15 colon, 29 µM. Moreover, the TGI with SW-620 colon came out at 38.1 µM.

As to `COc1cc(C)c2c(c1C)OC(=O)c1c(C)c(Cl)c(O)c(C=O)c1O2`, the TGI with CCRF-CEM leukemia came to 47.3 µM; in the assay with ACHN renal, 35.9 µM; with M14 melanoma it was 52 µM; in the assay on MOLT-4 leukemia, 32 µM; in the assay on 786-0 renal, 24.6 µM; with UACC-62 melanoma it was 43.6 µM. The figures for the TGI with SW-620 colon and in the assay on SNB-75 CNS were greater than 100 µM and 46.8 µM, respectively.

With `COc1cc2cccc(N=Cc3cccc(OC)c3OC(C)C)c2cc1OC`, the TGI with CCRF-CEM leukemia is greater than 100 µM; in the assay with ACHN renal it was greater than 100 µM; in the assay on M14 melanoma, 35.9 µM; in the assay with MOLT-4 leukemia it was 69.5 µM; in the assay on 786-0 renal, 37.8 µM; in the assay on UACC-62 melanoma, 45.6 µM. Besides, the TGI in the assay on SW-620 colon stood at 48.8 µM; in the assay on SNB-75 CNS it was 49 µM.

Take `COc1ccc2c(c1)[C@@]13CCCC[C@H]1[C@@H](C2)N(C)CC3=O`: the TGI with CCRF-CEM leukemia was 73.6 µM; in the assay with ACHN renal, 30.4 µM; in the assay on M14 melanoma it was 31 µM; in the assay with MOLT-4 leukemia, greater than 100 µM; with 786-0 renal it was 32.8 µM; in the assay on UACC-62 melanoma it was 32.7 µM. Further, the TGI worked out at 32.1 µM in the assay with HCT-15 colon and 28.4 µM in the assay with HOP-92 NSCLC.
